Experimental data as given in patent US12679878B2, “CRF2 receptor agonists and their use in therapy” (SANOFI, priority 2020, dated 2026).
Like-named read-outs stand apart in the source and are kept apart here. Starred links: 1 amine or outer side, 2 acyl side, 3 side chain; linkers in the order of their positions; H or OH if unused. Non-standard residues stand in square brackets, D forms with d. Residues, ends and D or L forms follow the SMILES beside them. Groups on a side chain read outwards from the residue. No end group written: not given here. *: point of attachment. C18 diacid = O=C(O)CCCCCCCCCCCCCCCCC(=O)*; γGlu = O=C(O)[C@H](CCC(=O)[*:2])N[*:1]; Palmitoyl = CCCCCCCCCCCCCCCC(=O)*; AEEA = NCCOCCOCC(=O)O; Aib = CC(C)(N)C(=O)O

B1: peptide of SEQ ID NO: 5 (peptide)
peptide: IVLSLDVPIGLK([γGlu-Palmitoyl])QKLLKQQRQRKERQQAETNARILARV-NH2
modifications: N-terminus assumed
SMILES: CCCCCCCCCCCCCCCC(=O)N[C@@H](CCC(=O)NCCCC[C@H](NC(=O)[C@H](CC(C)C)NC(=O)CNC(=O)[C@@H](NC(=O)[C@@H]1CCCN1C(=O)[C@@H](NC(=O)[C@H](CC(=O)O)NC(=O)[C@H](CC(C)C)NC(=O)[C@H](CO)NC(=O)[C@H](CC(C)C)NC(=O)[C@@H](NC(=O)[C@@H](N)[C@@H](C)CC)C(C)C)C(C)C)[C@@H](C)CC)C(=O)N[C@@H](CCC(N)=O)C(=O)N[C@@H](CCCCN)C(=O)N[C@@H](CC(C)C)C(=O)N[C@@H](CC(C)C)C(=O)N[C@@H](CCCCN)C(=O)N[C@@H](CCC(N)=O)C(=O)N[C@@H](CCC(N)=O)C(=O)N[C@@H](CCCNC(=N)N)C(=O)N[C@@H](CCC(N)=O)C(=O)N[C@@H](CCCNC(=N)N)C(=O)N[C@@H](CCCCN)C(=O)N[C@@H](CCC(=O)O)C(=O)N[C@@H](CCCNC(=N)N)C(=O)N[C@@H](CCC(N)=O)C(=O)N[C@@H](CCC(N)=O)C(=O)N[C@@H](C)C(=O)N[C@@H](CCC(=O)O)C(=O)N[C@H](C(=O)N[C@@H](CC(N)=O)C(=O)N[C@@H](C)C(=O)N[C@@H](CCCNC(=N)N)C(=O)N[C@H](C(=O)N[C@@H](CC(C)C)C(=O)N[C@@H](C)C(=O)N[C@@H](CCCNC(=N)N)C(=O)N[C@H](C(N)=O)C(C)C)[C@@H](C)CC)[C@@H](C)O)C(=O)O
B2: peptide of SEQ ID NO: 4 (peptide)
peptide: IVLSLDVPIGLK([γGlu-Palmitoyl])QKLLKQEKQEKEKQQAETNAKILAQV-NH2
modifications: N-terminus assumed
SMILES: CCCCCCCCCCCCCCCC(=O)N[C@@H](CCC(=O)NCCCC[C@H](NC(=O)[C@H](CC(C)C)NC(=O)CNC(=O)[C@@H](NC(=O)[C@@H]1CCCN1C(=O)[C@@H](NC(=O)[C@H](CC(=O)O)NC(=O)[C@H](CC(C)C)NC(=O)[C@H](CO)NC(=O)[C@H](CC(C)C)NC(=O)[C@@H](NC(=O)[C@@H](N)[C@@H](C)CC)C(C)C)C(C)C)[C@@H](C)CC)C(=O)N[C@@H](CCC(N)=O)C(=O)N[C@@H](CCCCN)C(=O)N[C@@H](CC(C)C)C(=O)N[C@@H](CC(C)C)C(=O)N[C@@H](CCCCN)C(=O)N[C@@H](CCC(N)=O)C(=O)N[C@@H](CCC(=O)O)C(=O)N[C@@H](CCCCN)C(=O)N[C@@H](CCC(N)=O)C(=O)N[C@@H](CCC(=O)O)C(=O)N[C@@H](CCCCN)C(=O)N[C@@H](CCC(=O)O)C(=O)N[C@@H](CCCCN)C(=O)N[C@@H](CCC(N)=O)C(=O)N[C@@H](CCC(N)=O)C(=O)N[C@@H](C)C(=O)N[C@@H](CCC(=O)O)C(=O)N[C@H](C(=O)N[C@@H](CC(N)=O)C(=O)N[C@@H](C)C(=O)N[C@@H](CCCCN)C(=O)N[C@H](C(=O)N[C@@H](CC(C)C)C(=O)N[C@@H](C)C(=O)N[C@@H](CCC(N)=O)C(=O)N[C@H](C(N)=O)C(C)C)[C@@H](C)CC)[C@@H](C)O)C(=O)O

What was measured:
[1] = biological target: T1, human CRF2α receptor (Homo sapiens, UniProt Q13324); experiment: cAMP agonism at human CRF2 α receptor in TeloHEAC cells (Example 7); assay type: cell-based; settings: cAMP HTRF, TeloHEAC cells stably expressing human CRF2 α
T1 construct: expressed in transfected cells; host or cells: TeloHEAC
T1 sequence (Q13324 1-411): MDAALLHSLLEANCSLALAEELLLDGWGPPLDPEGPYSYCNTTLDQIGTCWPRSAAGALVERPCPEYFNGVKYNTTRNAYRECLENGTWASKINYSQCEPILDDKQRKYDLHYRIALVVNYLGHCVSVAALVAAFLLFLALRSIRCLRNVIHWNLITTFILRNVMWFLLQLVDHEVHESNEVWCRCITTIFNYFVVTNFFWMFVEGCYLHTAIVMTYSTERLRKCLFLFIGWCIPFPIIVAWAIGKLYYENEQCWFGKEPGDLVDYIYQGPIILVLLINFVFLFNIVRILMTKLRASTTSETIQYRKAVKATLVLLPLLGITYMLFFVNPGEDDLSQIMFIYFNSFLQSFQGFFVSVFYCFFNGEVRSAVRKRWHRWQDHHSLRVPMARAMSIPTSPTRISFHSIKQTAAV
Outline: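 Percent activation was referenced to 1000 nM UCN2 (100%), and EC50 values taken as concentrations giving half of maximal response. The read-out was a homogeneous time-resolved fluorescence cAMP kit, fluorescence ratio 665/620 nm. Thawed cells (2000/well) saw compound for 30 min at RT in buffer with 2 mM IBMX and 0%/0.1% HSA.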

[2] = biological target: T2, CRF1R receptor (Homo sapiens, UniProt P34998); experiment: cAMP activity at anti-target CRF1R, CHO-K1 cell line clone 2 (Example 19.10); assay type: cell-based; settings: CRF1R CHO-K1 clone 2; for EC50: 0% HSA, read-out: EC50 [nM] 0% HSA; for Emax: 100% = Sauvagine at 100 nM
T2 construct: host or cells: CHO-K1 clone 2
T2 sequence (P34998 24-415): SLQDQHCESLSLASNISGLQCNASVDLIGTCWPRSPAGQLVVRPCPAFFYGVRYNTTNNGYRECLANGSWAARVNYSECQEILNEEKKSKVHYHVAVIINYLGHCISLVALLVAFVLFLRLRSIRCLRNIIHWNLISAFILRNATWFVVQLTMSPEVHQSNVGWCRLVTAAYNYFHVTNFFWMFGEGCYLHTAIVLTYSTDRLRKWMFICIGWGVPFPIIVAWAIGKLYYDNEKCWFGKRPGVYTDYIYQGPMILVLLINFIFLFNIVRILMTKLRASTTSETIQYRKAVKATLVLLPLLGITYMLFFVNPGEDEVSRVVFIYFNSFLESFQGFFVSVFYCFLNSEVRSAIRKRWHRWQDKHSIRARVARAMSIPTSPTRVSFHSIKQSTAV
Outline: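 The cAMP read-out used the same protocol as the previous assay, except that Sauvagine at 100 nM set the 100% activation control. Cells were CHO-K1 clone 2 overexpressing CRF1R, cultured in F12 medium with 10% FBS and G418 and stored frozen until use.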

[3] = biological target: T3, anti-target CRF1R receptor (UniProt P34998 24-415, limits assumed); experiment: cell-based or functional assay
T3 sequence (looked up): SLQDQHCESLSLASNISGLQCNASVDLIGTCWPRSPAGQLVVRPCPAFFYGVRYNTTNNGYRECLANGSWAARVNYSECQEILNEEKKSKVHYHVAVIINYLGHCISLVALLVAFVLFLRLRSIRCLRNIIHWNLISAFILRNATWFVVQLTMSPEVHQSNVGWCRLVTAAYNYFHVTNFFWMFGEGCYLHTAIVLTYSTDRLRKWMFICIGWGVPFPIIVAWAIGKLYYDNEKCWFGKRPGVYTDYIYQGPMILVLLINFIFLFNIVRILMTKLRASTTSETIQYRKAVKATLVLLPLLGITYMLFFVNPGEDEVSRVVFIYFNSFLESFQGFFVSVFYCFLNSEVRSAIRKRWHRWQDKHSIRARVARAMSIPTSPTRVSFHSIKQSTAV

[4] = 0% HSA, read-out: EC50 [nM], 0% HSA
[5] = 0.1% HSA, read-out: EC50 [nM], 0.1% HSA

| Molecule | EC50 [1, 4] | EC50 [1, 5] | EC50 [2] | Emax [2] | EC50[nM] 0% HSA (cAMP, CRF1R-overexpression CHO cells) [3] | Emax (%) (cAMP, CRF1R-overexpression CHO cells) [3] |
| --- | --- | --- | --- | --- | --- | --- |
| CC[C@H](C)[C@H](N)C(=O)N[C@H](C(=O)N[C@@H](CC(C)C)C(=O)N[C@@H](CO)C(=O)N[C@@H](CC(C)C)C(=O)N[C@@H](CC(=O)O)C(=O)N[C@@H](C(=O)N1CCC[C@H]1C(=O)N[C@H](C(=O)NCC(=O)N[C@@H](CC(C)C)C(=O)N[C@@H](CCCCNC(=O)COCCOCCNC(=O)COCCOCCNC(=O)CC[C@H](NC(=O)CCCCCCCCCCCCCCCCC(=O)O)C(=O)O)C(=O)N[C@@H](CCC(N)=O)C(=O)N[C@H](C(=O)N[C@@H](CC(C)C)C(=O)N[C@@H](CC(C)C)C(=O)N[C@@H](CCCCN)C(=O)N[C@@H](CCC(N)=O)C(=O)N[C@@H](CCC(=O)O)C(=O)N[C@@H](CCCNC(=N)N)C(=O)N[C@@H](CCC(N)=O)C(=O)N[C@@H](CCCCN)C(=O)N[C@@H](CCCCN)C(=O)NC(C)(C)C(=O)N[C@@H](CCCNC(=N)N)C(=O)N[C@@H](CCC(N)=O)C(=O)N[C@@H](CCC(N)=O)C(=O)N[C@@H](C)C(=O)N[C@@H](CCC(=O)O)C(=O)N[C@H](C(=O)N[C@@H](CC(N)=O)C(=O)N[C@@H](CCCCN)C(=O)N[C@@H](CCCNC(=N)N)C(=O)N[C@H](C(=O)N[C@@H](CC(C)C)C(=O)N[C@@H](CCC(=O)O)C(=O)N[C@@H](CCCNC(=N)N)C(=O)N[C@H](C(N)=O)C(C)C)[C@@H](C)CC)[C@@H](C)O)[C@@H](C)CC)[C@@H](C)CC)C(C)C)C(C)C [compound 150] (H-IVLSLD[dV]PIGLK([AEEA-AEEA-γGlu-C18 diacid])QILLKQERQKK[Aib]RQQAETNKRILERV-NH2; N-terminus assumed) | 0.07 nM | 3.99 nM | > 100 nM | 7.2% |  |  |
| CC[C@H](C)[C@H](N)C(=O)N[C@H](C(=O)N[C@@H](CC(C)C)C(=O)N[C@@H](CO)C(=O)N[C@@H](CC(C)C)C(=O)N[C@@H](CC(=O)O)C(=O)N[C@H](C(=O)N1CCC[C@H]1C(=O)N[C@H](C(=O)N[C@@H](CCCCN)C(=O)N[C@@H](CC(C)C)C(=O)N[C@@H](CCCCNC(=O)COCCOCCNC(=O)COCCOCCNC(=O)CC[C@H](NC(=O)CCCCCCCCCCCCCCCCC(=O)O)C(=O)O)C(=O)N[C@@H](CCC(N)=O)C(=O)N[C@H](C(=O)N[C@@H](CC(C)C)C(=O)N[C@@H](CC(C)C)C(=O)N[C@@H](CCCCN)C(=O)N[C@@H](CCC(N)=O)C(=O)N[C@@H](CCC(=O)O)C(=O)N[C@@H](CCCNC(=N)N)C(=O)N[C@@H](CCC(N)=O)C(=O)N[C@@H](CCCCN)C(=O)N[C@@H](CCCCN)C(=O)NC(C)(C)C(=O)N[C@@H](CCCNC(=N)N)C(=O)N[C@@H](CCC(=O)O)C(=O)N[C@@H](CCC(N)=O)C(=O)N[C@@H](C)C(=O)N[C@@H](CCC(=O)O)C(=O)N[C@H](C(=O)N[C@@H](CC(N)=O)C(=O)N[C@@H](CCCCN)C(=O)N[C@@H](CCCNC(=N)N)C(=O)N[C@H](C(=O)N[C@@H](CC(C)C)C(=O)N[C@@H](CCC(=O)O)C(=O)N[C@@H](CCCNC(=N)N)C(=O)N[C@H](C(N)=O)C(C)C)[C@@H](C)CC)[C@@H](C)O)[C@@H](C)CC)[C@@H](C)CC)C(C)C)C(C)C [compound 152] (H-IVLSLDVPIKLK([AEEA-AEEA-γGlu-C18 diacid])QILLKQERQKK[Aib]REQAETNKRILERV-NH2; N-terminus assumed) | 0.09 nM | 4.94 nM | > 100 nM | 4.9% |  |  |
| CC[C@H](C)[C@H](N)C(=O)N[C@H](C(=O)N[C@@H](CC(C)C)C(=O)N[C@@H](CO)C(=O)N[C@@H](CC(C)C)C(=O)N[C@@H](CC(=O)O)C(=O)N[C@H](C(=O)N1CCC[C@H]1C(=O)N[C@H](C(=O)NCC(=O)N[C@@H](CC(C)C)C(=O)N[C@@H](CCCCNC(=O)COCCOCCNC(=O)COCCOCCNC(=O)CC[C@H](NC(=O)CCCCCCCCCCCCCCCCC(=O)O)C(=O)O)C(=O)N[C@@H](CCC(N)=O)C(=O)N[C@H](C(=O)N[C@@H](CC(C)C)C(=O)N[C@@H](CC(C)C)C(=O)N[C@@H](CCCCN)C(=O)N[C@@H](CCC(N)=O)C(=O)N[C@@H](CCC(=O)O)C(=O)N[C@@H](CCCNC(=N)N)C(=O)N[C@@H](CCC(N)=O)C(=O)N[C@@H](CCCCN)C(=O)N[C@@H](CCCCN)C(=O)NC(C)(C)C(=O)N[C@@H](CCCNC(=N)N)C(=O)N[C@@H](CCC(=O)O)C(=O)N[C@@H](CCC(N)=O)C(=O)N[C@@H](C)C(=O)N[C@@H](CCC(=O)O)C(=O)N[C@H](C(=O)N[C@@H](CC(N)=O)C(=O)N[C@@H](C)C(=O)N[C@@H](CCC(N)=O)C(=O)N[C@H](C(=O)N[C@@H](CC(C)C)C(=O)N[C@@H](C)C(=O)N[C@@H](CCC(N)=O)C(=O)N[C@H](C(N)=O)C(C)C)[C@@H](C)CC)[C@@H](C)O)[C@@H](C)CC)[C@@H](C)CC)C(C)C)C(C)C [compound 156] (H-IVLSLDVPIGLK([AEEA-AEEA-γGlu-C18 diacid])QILLKQERQKK[Aib]REQAETNAQILAQV-NH2; N-terminus assumed) | 1.06 nM |  | > 100 nM | 4% |  |  |
| B1 |  |  |  |  | > 1000 nM | 37.4% |
| B2 |  |  |  |  | > 1000 nM | 17.4% |
